In patent US10760110B2, “Antibiotic testing and screening system” (priority 2017, dated 2020):
In brackets after ≈: the same amount, converted by molar mass. Like-named read-outs stand apart in the source and are kept apart here.

Assays:
Conditions in all cases: Klebsiella pneumoniae
[1] = tested on: K. pneumoniae NVT1001 and its ΔompK35/36 and/or ΔramR mutants; test: Etest MIC, OmpK35/36 loss and AcrAB-TolC overexpression (ΔramR) strains (Table 6); type: cell-based, Klebsiella pneumoniae
In short: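 MICs were read by Etest strip following the manufacturer's instructions, and values falling between standard two-fold dilutions were rounded up to the next two-fold step. Ceftazidime and cefotaxime were also tested by CLSI broth microdilution and interpreted against CLSI 2017 breakpoints; cephalothin used CLSI 2015 and moxifloxacin EUCAST 2017.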

[2] = tested on: K. pneumoniae NVT1001 ΔramRΔompK35/36 mutant and its revertants; test: Etest MIC, ΔramRΔompK35/36 mutant and its revertants (Table 7); type: cell-based
[3] = tested on: K. pneumoniae NVT1001 strains with carbapenemase plasmids; test: Etest MIC of β-lactams, OmpK35/36 loss, ΔramR and/or carbapenemase (Table 9); type: cell-based, Klebsiella pneumoniae
In short: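 Cloned resistance genes in pACYC177 or pACYC184 were electroporated into K. pneumoniae NVT1001. MICs were determined by Etest and rounded up to the next two-fold value. Ceftazidime and cefotaxime against the blaOXA-48 construct were also tested by CLSI broth microdilution, with breakpoints from CLSI 2017 (cephalothin CLSI 2015, moxifloxacin EUCAST 2017).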

`C[C@@H](O)[C@H]1C(=O)N2C(C(=O)O)=C(S[C@@H]3CN[C@H](C(=O)N(C)C)C3)[C@H](C)[C@H]12` [Meropenem] showed an MIC ([1]; WT, NVT1001, read-out: MIC) of 0.06 µg/mL (≈ 0.156 µM), an MIC ([1]; Δ35, ΔompK35 mutant) of 0.06 µg/mL (≈ 0.156 µM) and an MIC ([1]; Δ35/36, ΔompK35/36 mutant) of 0.5 µg/mL (≈ 1.3 µM). For the same compound, the MIC ([1]; Δ36, ΔompK36 mutant) was 0.06 µg/mL (≈ 0.156 µM), the MIC ([1]; ΔramR mutant) was 0.06 µg/mL (≈ 0.156 µM) and the MIC ([1]; ΔramRΔ35, ΔramRΔompK35 mutant) was 0.06 µg/mL (≈ 0.156 µM). For the same compound, the MIC ([1]; ΔramRΔ35/36, ΔramRΔompK35/36 mutant) was 2 µg/mL (≈ 5.22 µM), the MIC ([1]; ΔramRΔ36, ΔramRΔompK36 mutant) was 2 µg/mL (≈ 5.22 µM) and the MIC ([2]; ΔramRΔompK35/36::ompK35/36 revertant) was 0.06 µg/mL. For the same compound, the MIC ([2]; ΔramRΔompK35/36::ompK35 revertant) was 2 µg/mL, the MIC ([2]; ΔramRΔompK35/36::ompK36 revertant) was 0.06 µg/mL and the MIC ([2]; ΔramRΔompK35/36::ramR revertant) was 0.5 µg/mL. It also gave an MIC ([2]; ΔramRΔompK35/36::ramR::ompK35/36 revertant) of 0.125 µg/mL, an MIC ([2]; ΔramRΔompK35/36::ramR::ompK35 revertant) of 0.125 µg/mL and an MIC ([2]; ΔramRΔompK35/36::ramR::ompK36 revertant) of 0.125 µg/mL. For the same compound, the MIC ([2]; ΔramRΔompK35/36 mutant) was 2 µg/mL, the MIC ([3]; IMP-8 on pACYC177, WT (NVT1001), read-out: MIC) was 2 µg/mL and the MIC ([3]; IMP-8 on pACYC177, Δ35 (ΔompK35 mutant)) was 1 µg/mL. For the same compound, the MIC ([3]; IMP-8 on pACYC177, Δ35/36 (ΔompK35/36 mutant)) was greater than 32 µg/mL, the MIC ([3]; IMP-8 on pACYC177, Δ36 (ΔompK36 mutant)) was 2 µg/mL and the MIC ([3]; IMP-8 on pACYC177, ΔramR mutant) was 2 µg/mL. The MIC ([3]; IMP-8 on pACYC177, ΔramRΔ35 (ΔramRΔompK35 mutant)) was 2 µg/mL, the MIC ([3]; IMP-8 on pACYC177, ΔramRΔ35/36 (ΔramRΔompK35/36 mutant)) was greater than 32 µg/mL and the MIC ([3]; IMP-8 on pACYC177, ΔramRΔ36 (ΔramRΔompK36 mutant)) was greater than 32 µg/mL. It also gave an MIC ([3]; KPC-2 on pACYC177, WT (NVT1001), read-out: MIC) of 32 µg/mL, an MIC ([3]; KPC-2 on pACYC177, Δ35 (ΔompK35 mutant)) greater than 32 µg/mL and an MIC ([3]; KPC-2 on pACYC177, Δ35/36 (ΔompK35/36 mutant)) greater than 32 µg/mL. It also gave an MIC ([3]; KPC-2 on pACYC177, Δ36 (ΔompK36 mutant)) greater than 32 µg/mL, an MIC ([3]; KPC-2 on pACYC177, ΔramR mutant) of 32 µg/mL and an MIC ([3]; KPC-2 on pACYC177, ΔramRΔ35 (ΔramRΔompK35 mutant)) greater than 32 µg/mL. It also gave an MIC ([3]; KPC-2 on pACYC177, ΔramRΔ35/36 (ΔramRΔompK35/36 mutant)) greater than 32 µg/mL, an MIC ([3]; KPC-2 on pACYC177, ΔramRΔ36 (ΔramRΔompK36 mutant)) greater than 32 µg/mL and an MIC ([3]; KPC-3 on pACYC177, WT (NVT1001), read-out: MIC) of 16 µg/mL. The MIC ([3]; KPC-3 on pACYC177, Δ35 (ΔompK35 mutant)) was 32 µg/mL, the MIC ([3]; KPC-3 on pACYC177, Δ35/36 (ΔompK35/36 mutant)) was greater than 32 µg/mL and the MIC ([3]; KPC-3 on pACYC177, Δ36 (ΔompK36 mutant)) was greater than 32 µg/mL. The MIC ([3]; KPC-3 on pACYC177, ΔramR mutant) was 32 µg/mL, the MIC ([3]; KPC-3 on pACYC177, ΔramRΔ35 (ΔramRΔompK35 mutant)) was greater than 32 µg/mL and the MIC ([3]; KPC-3 on pACYC177, ΔramRΔ35/36 (ΔramRΔompK35/36 mutant)) was greater than 32 µg/mL. It also gave an MIC ([3]; KPC-3 on pACYC177, ΔramRΔ36 (ΔramRΔompK36 mutant)) greater than 32 µg/mL, an MIC ([3]; NDM-1 on pACYC177, WT (NVT1001), read-out: MIC) of 32 µg/mL and an MIC ([3]; NDM-1 on pACYC177, Δ35 (ΔompK35 mutant)) of 32 µg/mL. It also gave an MIC ([3]; NDM-1 on pACYC177, Δ35/36 (ΔompK35/36 mutant)) greater than 32 µg/mL, an MIC ([3]; NDM-1 on pACYC177, Δ36 (ΔompK36 mutant)) greater than 32 µg/mL and an MIC ([3]; NDM-1 on pACYC177, ΔramR mutant) of 32 µg/mL. For the same compound, the MIC ([3]; NDM-1 on pACYC177, ΔramRΔ35 (ΔramRΔompK35 mutant)) was 32 µg/mL, the MIC ([3]; NDM-1 on pACYC177, ΔramRΔ35/36 (ΔramRΔompK35/36 mutant)) was greater than 32 µg/mL and the MIC ([3]; NDM-1 on pACYC177, ΔramRΔ36 (ΔramRΔompK36 mutant)) was greater than 32 µg/mL. The MIC ([3]; OXA-48 on pACYC177, WT (NVT1001), read-out: MIC) was 2 µg/mL, the MIC ([3]; OXA-48 on pACYC177, Δ35 (ΔompK35 mutant)) was 2 µg/mL and the MIC ([3]; OXA-48 on pACYC177, Δ35/36 (ΔompK35/36 mutant)) was greater than 32 µg/mL. It also gave an MIC ([3]; OXA-48 on pACYC177, Δ36 (ΔompK36 mutant)) of 8 µg/mL, an MIC ([3]; OXA-48 on pACYC177, ΔramR mutant) of 2 µg/mL and an MIC ([3]; OXA-48 on pACYC177, ΔramRΔ35 (ΔramRΔompK35 mutant)) of 2 µg/mL. It also gave an MIC ([3]; OXA-48 on pACYC177, ΔramRΔ35/36 (ΔramRΔompK35/36 mutant)) greater than 32 µg/mL, an MIC ([3]; OXA-48 on pACYC177, ΔramRΔ36 (ΔramRΔompK36 mutant)) greater than 32 µg/mL and an MIC ([3]; VIM-1 on pACYC177, WT (NVT1001), read-out: MIC) of 16 µg/mL. The MIC ([3]; VIM-1 on pACYC177, Δ35 (ΔompK35 mutant)) was greater than 32 µg/mL, the MIC ([3]; VIM-1 on pACYC177, Δ35/36 (ΔompK35/36 mutant)) was greater than 32 µg/mL and the MIC ([3]; VIM-1 on pACYC177, Δ36 (ΔompK36 mutant)) was greater than 32 µg/mL. For the same compound, the MIC ([3]; VIM-1 on pACYC177, ΔramR mutant) was greater than 32 µg/mL, the MIC ([3]; VIM-1 on pACYC177, ΔramRΔ35 (ΔramRΔompK35 mutant)) was 32 µg/mL and the MIC ([3]; VIM-1 on pACYC177, ΔramRΔ35/36 (ΔramRΔompK35/36 mutant)) was greater than 32 µg/mL. It also gave an MIC ([3]; VIM-1 on pACYC177, ΔramRΔ36 (ΔramRΔompK36 mutant)) greater than 32 µg/mL, an MIC ([3]; no supplemental plasmid, WT (NVT1001), read-out: MIC) of 0.06 µg/mL and an MIC ([3]; no supplemental plasmid, Δ35 (ΔompK35 mutant)) of 0.06 µg/mL. For the same compound, the MIC ([3]; no supplemental plasmid, Δ35/36 (ΔompK35/36 mutant)) was 0.5 µg/mL, the MIC ([3]; no supplemental plasmid, Δ36 (ΔompK36 mutant)) was 0.06 µg/mL and the MIC ([3]; no supplemental plasmid, ΔramR mutant) was 0.06 µg/mL. The MIC ([3]; no supplemental plasmid, ΔramRΔ35 (ΔramRΔompK35 mutant)) was 0.06 µg/mL, the MIC ([3]; no supplemental plasmid, ΔramRΔ35/36 (ΔramRΔompK35/36 mutant)) was 2 µg/mL and the MIC ([3]; no supplemental plasmid, ΔramRΔ36 (ΔramRΔompK36 mutant)) was 2 µg/mL.
